This experiment has as its target human GPR52 (Homo sapiens, UniProt Q9Y2T5). Nature of the experiment: GPR52 Agonist Functional cAMP Assay.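 As to all read-outs here: HEKf cells transduced with GPR52 BacMam for 24 h, 2000 per well, exposed to compounds 30 min at 37° C with 0.5 mM IBMX, cAMP read by HTRF.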 The following applies: for Emax: maximal response normalised to DMSO (0%) and maximal compound 7m (J. Med. Chem., 2014, 57, 5226) response (100%); for pEC50: pEC50 average, HEKf cells infected with human GPR52 BacMam virus, cAMP HTRF, 30 min at 37° C.

The Emax is the greatest response seen or fitted, relative to the assay's reference. Usually pEC50 stands for the negative decadic logarithm of the EC50, by convention in mol/L. A higher pEC50 goes with a small EC50.

pEC50: −log10 of the molar value.

Sequence of human GPR52 (Q9Y2T5 whole entry): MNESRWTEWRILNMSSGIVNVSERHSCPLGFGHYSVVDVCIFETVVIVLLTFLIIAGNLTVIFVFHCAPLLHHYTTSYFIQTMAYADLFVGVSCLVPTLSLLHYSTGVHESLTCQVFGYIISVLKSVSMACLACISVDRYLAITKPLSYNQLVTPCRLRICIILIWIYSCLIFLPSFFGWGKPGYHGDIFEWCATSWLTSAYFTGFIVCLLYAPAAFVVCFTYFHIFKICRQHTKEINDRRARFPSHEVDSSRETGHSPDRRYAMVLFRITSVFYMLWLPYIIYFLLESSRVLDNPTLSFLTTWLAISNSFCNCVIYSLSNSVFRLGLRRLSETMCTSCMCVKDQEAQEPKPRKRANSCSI

For the compound `Cc1nn(-c2ccnc(Cc3cc(F)c(Cl)c(F)c3)c2)c2c1C(=O)NCC2` [Example 90, 1-(2-(4-chloro-3,5-difluorobenzyl)pyridin-4-yl)-3-methyl-1,5,6,7-tetrahydro-4H-pyrazolo[4,3-c]pyridin-4-one], the Emax worked out at 87% and the pEC50 is 7.70.

Compound `O=C1NCCc2c1cnn2-c1ccnc(Cc2ccc(F)c(Cl)c2)c1` [Example 25, 1-(2-(3-chloro-4-fluorobenzyl)pyridin-4-yl)-1,5,6,7-tetrahydro-4H-pyrazolo[4,3-c]pyridin-4-one] gave an Emax of 89% and a pEC50 of 6.80.

`COc1ncc(Cc2cc(-n3ncc4c3CCNC4=O)ccn2)cc1F` [Example 72, 1-(2-((5-fluoro-6-methoxypyridin-3-yl)methyl)pyridin-4-yl)-1,5,6,7-tetrahydro-4H-pyrazolo[4,3-c]pyridin-4-one] showed an Emax of 83% and a negative logarithm of the EC50 (pEC50) of 5.90.

The compound `O=C1NCCc2c1cnn2-c1ccnc(C(F)(F)c2cc(F)cc(C(F)(F)F)c2)c1` [Example 38, 1-(2-(difluoro(3-fluoro-5-(trifluoromethyl)phenyl)methyl)pyridin-4-yl)-1,5,6,7-tetrahydro-4H-pyrazolo[4,3-c]pyridin-4-one] gave an Emax of 55% and a pEC50 of 6.20.

As to `Cc1cc(Cc2ccnc(-n3ncc4c3CCN(C)C4=O)c2)cnc1F` [Example 7, 1-(4-((6-fluoro-5-methylpyridin-3-yl)methyl)pyridin-2-yl)-5-methyl-1,5,6,7-tetrahydro-4H-pyrazolo[4,3-c]pyridin-4-one], the maximal response (Emax) was determined as 83% and the negative logarithm of the EC50 (pEC50) was 6.70.

On to `O=C1NCCc2c1cnn2-c1ccnc(Cc2cc(F)c(F)c(F)c2)c1` [Example 24, 1-(2-(3,4,5-trifluorobenzyl)pyridin-4-yl)-1,5,6,7-tetrahydro-4H-pyrazolo[4,3-c]pyridin-4-one], for which the Emax amounted to 95% and the negative-log EC50 (pEC50) is 6.50.

The compound `O=C1NCCc2c1c(C(F)(F)F)nn2-c1ccnc(Cc2cc(F)cc(C(F)(F)F)c2)c1` [Example 116, 1-(2-(3-fluoro-5-(trifluoromethyl)benzyl)pyridin-4-yl)-3-(trifluoromethyl)-1,5,6,7-tetrahydro-4H-pyrazolo[4,3-c]pyridin-4-one] showed a maximal response (Emax) of 95% and a pEC50 of 8.30.

Regarding `O=C1NCCc2c1cnn2-c1ccnc(Cc2cc(Cl)c(F)c(C(F)(F)F)c2)c1` [Example 73, 1-(2-(3-chloro-4-fluoro-5-(trifluoromethyl)benzyl)pyridin-4-yl)-1,5,6,7-tetrahydro-4H-pyrazolo[4,3-c]pyridin-4-one], the Emax was 88% and the pEC50 was 7.30.

The compound `O=C1NCCc2c1cnn2-c1ccnc(Cc2cnc3ccccc3c2)c1` [Example 67, 1-(2-(quinolin-3-ylmethyl)pyridin-4-yl)-1,5,6,7-tetrahydro-4H-pyrazolo[4,3-c]pyridin-4-one] showed an Emax of 53% and a pEC50 of 5.80.

In turn, `Cc1nn(-c2cc(Cc3cc(F)cc(C(F)(F)F)c3)ccn2)c2c1C(=O)NCC2` [Example 95, 1-(4-(3-fluoro-5-(trifluoromethyl)benzyl)pyridin-2-yl)-3-methyl-1,5,6,7-tetrahydro-4H-pyrazolo[4,3-c]pyridin-4-one] had an Emax of 98% and a pEC50 of 8.20.

In turn, `O=C1NCCc2c1cnn2-c1cnnc(Cc2cc(F)cc(C(F)(F)F)c2)c1` [Example 17, 1-(6-(3-fluoro-5-(trifluoromethyl)benzyl)pyridazin-4-yl)-1,5,6,7-tetrahydro-4H-pyrazolo[4,3-c]pyridin-4-one] showed an Emax of 96% and a pEC50 of 5.90.

As for `Cc1nn(-c2ccnc(Cc3cc(F)c(F)c(C(F)(F)F)c3)c2)c2c1C(=O)NCC2` [Example 86, 1-(2-(3,4-difluoro-5-(trifluoromethyl)benzyl)pyridin-4-yl)-3-methyl-1,5,6,7-tetrahydro-4H-pyrazolo[4,3-c]pyridin-4-one], the maximal response (Emax) was found to be 102% and the pEC50 was 8.50.

`O=C1NCCc2c1cnn2-c1cc(Cc2cc(F)cc(C(F)(F)F)c2)ncn1` [Example 56, 1-(6-(3-fluoro-5-(trifluoromethyl)benzyl)pyrimidin-4-yl)-1,5,6,7-tetrahydro-4H-pyrazolo[4,3-c]pyridin-4-one] gave an Emax of 98% and a pEC50 of 6.90.

The compound `CC1CNC(=O)c2cnn(-c3ccnc(Cc4cc(F)cc(C(F)(F)F)c4)c3)c21` (stereo not drawn) [Example 50, 1-(2-(3-fluoro-5-(trifluoromethyl)benzyl)pyridin-4-yl)-7-methyl-1,5,6,7-tetrahydro-4H-pyrazolo[4,3-c]pyridin-4-one] showed a maximal effect (Emax) of 95% and a pEC50 of 7.40.

In the case of `Cc1cc(Cc2cc(-n3ncc4c3CCNC4=O)ccn2)cc(C(F)(F)F)c1` [Example 28, 1-(2-(3-methyl-5-(trifluoromethyl)benzyl)pyridin-4-yl)-1,5,6,7-tetrahydro-4H-pyrazolo[4,3-c]pyridin-4-one], the maximum response (Emax) worked out at 88% and the negative logarithm of the EC50 (pEC50) was 7.00.

Regarding `O=C1NCCc2c1nnn2-c1cc(Cc2cc(F)cc(C(F)(F)F)c2)ccn1` [Example 99, 1-(4-(3-fluoro-5-(trifluoromethyl)benzyl)pyridin-2-yl)-1,5,6,7-tetrahydro-4H-[1,2,3]triazolo[4,5-c]pyridin-4-one], the Emax was determined as 95% and the pEC50 is 6.90.

With `O=C1NCCc2c1cnn2-c1ccnc(Cc2ccc(C(F)(F)F)c(F)c2)c1` [Example 54, 1-(2-(3-fluoro-4-(trifluoromethyl)benzyl)pyridin-4-yl)-1,5,6,7-tetrahydro-4H-pyrazolo[4,3-c]pyridin-4-one], the Emax turned out to be 63% and the pEC50 is 6.40.

In the case of `COCCN1CCc2c(cnn2-c2ccnc(Cc3cc(F)cc(C(F)(F)F)c3)c2)C1=O` [Example 104, 1-(2-(3-fluoro-5-(trifluoromethyl)benzyl)pyridin-4-yl)-5-(2-methoxyethyl)-1,5,6,7-tetrahydro-4H-pyrazolo[4,3-c]pyridin-4-one], the Emax was determined as 94% and the negative-log EC50 (pEC50) was 7.00.

As to `CC1Cc2c(cnn2-c2ccnc(Cc3cc(F)cc(C(F)(F)F)c3)c2)C(=O)N1` (single isomer, unassigned) [Example 40 Isomer 1, 1-(2-(3-fluoro-5-(trifluoromethyl)benzyl)pyridin-4-yl)-6-methyl-1,5,6,7-tetrahydro-4H-pyrazolo[4,3-c]pyridin-4-one], the Emax was determined as 95% and the negative-log EC50 (pEC50) was 7.50.

`CN1CCc2nn(-c3cc(Cc4cccc(C(F)(F)F)c4)ccn3)nc2C1=O` [Example 44, 5-methyl-2-(4-(3-(trifluoromethyl)benzyl)pyridin-2-yl)-2,5,6,7-tetrahydro-4H-[1,2,3]triazolo[4,5-c]pyridin-4-one] gave an Emax of 74% and a pEC50 of 5.70.

On to `O=C1NCCc2c1cnn2-c1ccnc(Cc2cc(C(F)(F)F)cc(C(F)(F)F)c2)c1` [Example 34, 1-(2-(3,5-bis(trifluoromethyl)benzyl)pyridin-4-yl)-1,5,6,7-tetrahydro-4H-pyrazolo[4,3-c]pyridin-4-one], for which the Emax is 54% and the pEC50 is 6.00.

Take `O=C1NCCc2c1cnn2-c1ccnc(Cc2ccc3sccc3c2)c1` [Example 59, 1-(2-(benzo[b]thiophen-5-ylmethyl)pyridin-4-yl)-1,5,6,7-tetrahydro-4H-pyrazolo[4,3-c]pyridin-4-one]: the maximal effect (Emax) was found to be 79% and the negative-log EC50 (pEC50) was 7.10.

For the compound `O=C1NCCCc2c1cnn2-c1cc(Cc2cc(F)cc(C(F)(F)F)c2)ccn1` [Example 10, 1-(4-(3-fluoro-5-(trifluoromethyl)benzyl)pyridin-2-yl)-5,6,7,8-tetrahydropyrazolo[4,3-c]azepin-4(1H)-one], the Emax stood at 90% and the pEC50 was 8.10.

Compound `O=C1NCCc2c1cnn2-c1ccnc(Cc2cc(F)cc(Cl)c2)c1` [Example 20, 1-(2-(3-chloro-5-fluorobenzyl)pyridin-4-yl)-1,5,6,7-tetrahydro-4H-pyrazolo[4,3-c]pyridin-4-one] showed an Emax of 101% and a pEC50 of 6.80.

As to `O=C1NCCOc2c1cnn2-c1cc(Cc2cc(F)cc(C(F)(F)F)c2)ccn1` [Example 14, 1-(4-(3-fluoro-5-(trifluoromethyl)benzyl)pyridin-2-yl)-6,7-dihydro-1H-pyrazolo[4,3-f][1,4]oxazepin-4(5H)-one], the Emax is 103% and the negative-log EC50 (pEC50) was 8.00.

Regarding `O=C1NCCc2c1cnn2-c1ccnc(Cc2ccc(F)c(C(F)(F)F)c2)c1` [Example 23, 1-(2-(4-fluoro-3-(trifluoromethyl)benzyl)pyridin-4-yl)-1,5,6,7-tetrahydro-4H-pyrazolo[4,3-c]pyridin-4-one], the maximal response (Emax) worked out at 90% and the pEC50 was 6.80.

`O=C1NCCc2c1cnn2-c1ccnc(Cc2cc(F)c(F)c(Cl)c2)c1` [Example 66, 1-(2-(3-chloro-4,5-difluorobenzyl)pyridin-4-yl)-1,5,6,7-tetrahydro-4H-pyrazolo[4,3-c]pyridin-4-one] showed an Emax of 100% and a pEC50 of 7.60.

Compound `O=C1NCCCc2c1nnn2-c1cc(Cc2cccc(C(F)(F)F)c2)ccn1` [Example 41, 1-(4-(3-(trifluoromethyl)benzyl)pyridin-2-yl)-5,6,7,8-tetrahydro-[1,2,3]triazolo[4,5-c]azepin-4(1H)-one] showed an Emax of 90% and a pEC50 of 6.10.

In the case of `O=C1NCCc2c1cnn2-c1ccnc(Cc2cc(F)cc(C3CC3)c2)c1` [Example 53, 1-(2-(3-cyclopropyl-5-fluorobenzyl)pyridin-4-yl)-1,5,6,7-tetrahydro-4H-pyrazolo[4,3-c]pyridin-4-one], the Emax was found to be 100% and the negative-log EC50 (pEC50) was 8.20.

The compound `Cc1cc(Cc2ccnc(-n3nc(C)c4c3CCNC4=O)c2)cnc1F` [Example 83, 1-(4-((6-fluoro-5-methylpyridin-3-yl)methyl)pyridin-2-yl)-3-methyl-1,5,6,7-tetrahydro-4H-pyrazolo[4,3-c]pyridin-4-one] had an Emax of 93% and a pEC50 of 7.60.

Values taken from US20230002374A1, “GPR52 MODULATOR COMPOUNDS” (Heptares Therapeutics Limited, priority 2019, published 2023).
